Data as given in patent US11376277B2, “Synergistic medicinal compositions for treating dysfunctional D-serine signaling” (CELAGENEX RESEARCH (INDIA) PVT. LTD., priority 2020, dated 2022).
Like-named read-outs stand apart in the source and are kept apart here.

Legend:
human SR = target: T1, human SR (Homo sapiens, UniProt Q9GZT4); settings: cited from earlier work
T1 sequence (Q9GZT4 1-340): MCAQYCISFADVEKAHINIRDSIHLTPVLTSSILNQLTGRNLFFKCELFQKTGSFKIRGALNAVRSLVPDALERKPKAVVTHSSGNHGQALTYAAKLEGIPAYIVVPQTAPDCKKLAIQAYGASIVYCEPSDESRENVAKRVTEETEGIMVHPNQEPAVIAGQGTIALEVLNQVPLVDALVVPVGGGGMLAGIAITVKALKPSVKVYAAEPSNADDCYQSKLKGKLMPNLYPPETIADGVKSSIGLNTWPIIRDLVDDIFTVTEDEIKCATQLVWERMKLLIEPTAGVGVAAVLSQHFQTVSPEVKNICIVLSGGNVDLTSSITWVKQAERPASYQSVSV

D-serine [1] = assay: Pharmacokinetics profile of D-serine in rat model, blood plasma; settings: for ln(C) / Conc / AUC: D-serine in rat plasma; for Conc: doses per Table 1
Procedure: (§1) To assess and compare the pharmacokinetics profile of D-serine in rat model.
(§2) Six groups were divided into 4 sets of 3 rats each/subset for bleeding and organ (brain) collection—Total 72 rats
Plasma was separated using refrigerated centrifuge & stored in −80° C. before analysis. Blood was collected at time point 0, 2, 6 and 10 hrs at least from 3 rats/group/time point.
(§3) Supernatant was filtered with 0.2 micron amicon syringe filter (Millipore, Hessen, Germany), then directly transferred into auto sampler vials
(§4) An Accela™ ultra-high performance liquid chromatography (UHPLC) system (Thermo Fisher, Waltham, USA), coupled online via heated electrospray ionization source (HESI) with a Q-Exactive-Orbitrap mass spectrometer (Thermo Fisher), was employed for global metabolomics profiling with 1 μL sample injection volume. The metabolites were profiled using a C18 Hypersil Gold column (1.9 μm, 2.1×150 mm, Thermo).
(§5) The temperature of column oven was set at 35° C. and the sample manager was maintained at 4° C. The eluents acetonitrile and water containing 0.1% formic acid were employed in the electrospray ionization-positive (ESI+) mode.
(§6) The area under the plasma concentration time curve (AUC) value was calculated to the last quantifiable sample (AUClast) by using the log-linear trapezoidal rule.

D-serine [2] = assay: Pharmacokinetics profile of D-serine in rat model, brain tissue sample; settings: for ln(C) / Conc / AUC: D-serine in rat brain tissue; for Conc: doses per Table 1
Procedure: as §1, §2
Organ (Brain) collection: Rats were sacrificed each time point (3 rats/group/time point) by decapitation at 0, 2, 6 or 10 hr post dose. Brain was removed and cerebellum dissected on ice. Tissue samples were frozen on dry ice and stored at −80° C. until analysis.
as §3, §4, §5, §6

[3] = D-serine, rat plasma, non-compartmental analysis
[4] = D-serine, rat brain tissue, non-compartmental analysis

## [Mn+2] [Mn^2+]
Human SR; @10 μM
  activity of the enzyme relative to purified human SR without divalent cation supplementation: 153%

## magnesium 2-acetamidoethanesulfonate dihydrate [Test I]
D-serine [1]; Time 0 (pre-dose)
  ln(C): −0.3877
  Conc: 0.6786
D-serine [1]; Time 2 hr
  ln(C): −0.4986
  Conc: 0.6074
D-serine [1]; Time 6 hr
  ln(C): −0.6686
  Conc: 0.5124
D-serine [1]; Time 10 hr
  ln(C): −0.85
  Conc: 0.4274
D-serine [1]; cumulative to Time 2 hr
  AUC: 1.286
D-serine [1]; cumulative to Time 6 hr
  AUC: 3.5256
D-serine [1]; [3]
  AUC 0-inf_obs: 11130 ng·h/mL
  AUMC 0-inf_obs: 343.2 μg/ml*h^2
  Cl/F_obs: 2.39 (mg)/(μg/ml)/h
  Cmax: 678.6 ng/mL
  MRT 0-inf_obs: 22.68 h
  Tlag: 0 h
  Tmax: 0 h
  Vz/F_obs: 54.4 (mg)/(μg/ml)
  t1/2: 15.78 h
D-serine [1]; D-serine, rat plasma, non-compartmental analysis, 0-10 hr
  AUC 0-t: 3405.2 ng·h/mL
D-serine [1]; D-serine, rat plasma, non-compartmental analysis, extravascular input
  Lambda_z: 0.04393 L/h
D-serine [1]; rat plasma, G4 36.17 mg/kg, G5 31.01 mg/kg
  AUC values of D-serine: increased
D-serine [2]; Time 0 (pre-dose)
  ln(C): −0.8701
  Conc: 0.4189
D-serine [2]; Time 2 hr
  ln(C): −0.981
  Conc: 0.3749
D-serine [2]; Time 6 hr
  ln(C): −1.151
  Conc: 0.3163
D-serine [2]; Time 10 hr
  ln(C): −1.332
  Conc: 0.2638
D-serine [2]; cumulative to Time 2 hr
  AUC: 0.7938
D-serine [2]; cumulative to Time 6 hr
  AUC: 2.176
D-serine [2]; [4]
  AUC 0-inf_obs: 7342 ng·h/mL
  AUMC 0-inf_obs: 211.9 μg/ml*h^2
  Cl/F_obs: 3.872 (mg)/(μg/ml)/h
  Cmax: 418.9 ng/mL
  MRT 0-inf_obs: 22.68 h
  Tlag: 0 h
  Tmax: 0 h
  Vz/F_obs: 88.12 (mg)/(μg/ml)
  t1/2: 15.78 h
D-serine [2]; D-serine, rat brain tissue, non-compartmental analysis, 0-10 hr
  AUC 0-t: 2137 ng·h/mL
D-serine [2]; D-serine, rat brain tissue, non-compartmental analysis, extravascular input
  Lambda_z: 0.04393 L/h
D-serine [2]; rat brain tissue samples, G4 36.17 mg/kg, G5 31.01 mg/kg
  AUC values of D-serine: increased

## N[C@@H](COS(=O)(=O)O)C(=O)O [L-Serine 0-sulfate, L-Serine O-sulfate, reference compound]
D-serine [1]; rat, treated with serine racemase inhibitor, 1.86 mg/kg
  D-Serine over control: substantially reduced

## [Ca+2] [Ca′]
Human SR; @1 mM
  activity of the enzyme relative to purified human SR without divalent cation supplementation: 134%

## [Mg+2] [Mg^2+]
Human SR; @10 μM
  activity of the enzyme relative to purified human SR without divalent cation supplementation: 112%
